Assay results reported in US20230000876A1, “TREATING CANCERS WITH A CYCLIN-DEPENDENT KINASE INHIBITOR” (Nuvation Bio Inc., priority 2021, published 2023).

Experiments:
SK-MEL-5 = assay: Cell viability assay, melanoma cell line SK-MEL-5; type: cell-based
Protocol: (§1) 4.4.4 Compound Plate (10×) Preparation and Compound Treatment • 10× concentrate compound plate preparation: Add 198 μL of assay medium into each well of the V-bottom plate; then transfer 2 μL of the stock compound solution of each concentration from the stock plate. Add 2 μL of DMSO into the Blank and Control wells. Pipette up and down to mix well. This V-plate is designated as the 10× concentrate compound plate. • For day 0 plate, add 15 μL of the DMSO-medium into the Control wells. The final DMSO concentration was 0.1%. Then directly proceed to cell viability assay. • For assay plate, add 15 μL of the compound-medium of each well from the 10× concentrate compound plate into the cells in 96-well assay plate according to the plate map. Add 15 μL of the DMSO-medium into the Blank and Control wells. The final DMSO concentration was 0.1%. • Return the assay plate into incubator and incubate for 6 days.
(§2) The procedures were performed according to the Promega CellTiter-Glo Luminescent Cell Viability Assay Kit manual (Promega-G7573). • The CellTiter-Glo buffer was thawed and equilibrated to room temperature prior to use. • CellTiter-Glo Substrate was equilibrated to room temperature prior to use. • The entire liquid volume of CellTiter-Glo Buffer was transferred into the amber bottle containing CellTiter-Glo Substrate to reconstitute the lyophilized enzyme/substrate mixture. […] Plates were covered with aluminum foil to protect from light. • The contents were mixed for 2 minutes on an orbital shaker to induce cell lysis. • The plate was incubated at room temperature for 20 minutes to stabilize luminescent signal. • Record luminescence on the 2104 EnVision plate reader.
(§3) Inhibition rate (IR) of the tested compounds was determined by the following formula: IR (%)=(1−(RLU compound−RLU day0)/(RLU control−RLU day0))*100%. The inhibitions of different dose of compound were calculated in Excel file, and then were used to plot inhibition curves and evaluate related parameters, such as Min (%), Max (%) and GI50. […]

SK-MEL-31 = assay: Cell viability assay, melanoma cell line SK-MEL-31; type: cell-based
Protocol: as §1, §2, §3

xMDA-MB-361 breast tumor = xMDA-MB-361 breast tumor model (ER-positive/HER2-positive); type: in vivo, female BALB/c nude mice; conditions: Group 5: Compound (I) 30 mg/kg PO QD*42 days
Protocol: Trastuzumab, tucatinib, Compound (I), and fulvestrant were tested in a xMDA-MB-361 breast tumor model (ER-positive/HER2-positive) on female BALB/c nude mice.

H1975-luc = assay: CellTiter-Glo anti-proliferation assay, H1975-luc; type: cell-based
Protocol: The anti-proliferation effect of 2 compounds (the compound of formula (I) and temozolomide) in 7 CNS metastasis cell lines (MOLT-4-luc, Nalm-6-luc, NCI-H460-luc, ACHN-luc2, PC-9-luc, H1975-luc, and KM12-luc) was evaluated.
The plating of cells and compound treatments are shown below in the plate map (Table 12). One plate was needed for the test of 2 compounds (the compound of formula (I) and temozolomide) in one cell line. The compound of formula (I) was tested from 10 μM, 3-fold serial dilution. Temozolomide was tested from 100 μM, 3-fold serial dilution.
All the cell lines were maintained in culture conditions at 37° C. in an atmosphere with 5% CO2 in air. The tumor cells were routinely subcultured. The cells growing in an exponential growth phase were harvested and counted for plating.
Cells were counted by haemocytometer with Trypan blue staining. Next, 135 μL of cell suspension were plated into the assay plates according to the plate map and 135 μL of assay medium into the blank wells. The plates were incubated at 37° C., 5% CO2, 95% air and 100% relative humidity overnight.
as §1
The procedures were performed according to the Promega CellTiter-Glo Luminescent Cell Viability Assay Kit manual (Promega-G7573). • The CellTiter-Glo buffer was thawed and equilibrated to room temperature prior to use. • CellTiter-Glo Substrate was equilibrated to room temperature prior to use. • The entire liquid volume of CellTiter-Glo Buffer was transferred into the amber bottle containing CellTiter-Glo Substrate to reconstitute the lyophilized enzyme/substrate mixture. This forms the CellTiter-Glo Reagent. • The contents were mixed by gently vortexing to obtain a homogeneous solution. • The plate was equilibrated and its contents to room temperature for approximately 30 minutes. 75 μL (equal to the half volume of culture medium present in each well) CellTiter-Glo • Reagent was added in each well. Plates were covered with aluminum foil to protect from light. • The contents were mixed for 2 minutes on an orbital shaker to induce cell lysis. • The plate was incubated at room temperature for 20 minutes to stabilize luminescent signal. • Record luminescence on the 2104 EnVision plate reader.
Inhibition rate (IR) of the tested compounds was determined by the following formula: IR (%)=(1−(RLU compound−RLU day0)/(RLU control−RLU day0))*100%. The inhibitions of different dose of compound were calculated in Excel file, and then were used to plot inhibition curves and evaluate related parameters, such as Min (%), Max (%) and GI50. The data were interpreted by GraphPad Prism.

[1] = inhibition rate, 6 days, Compound (I) from 10 μM, temozolomide from 100 μM, 3-fold, 9 points

## CC(C)N1CCOc2c(F)cc(-c3nc(Nc4ccc(C5CCN(C)CC5)cn4)ncc3F)cc21 [Compound (I), 5-fluoro-4-(8-fluoro-4-isopropyl-3,4-dihydro-2H-benzo[b][1,4]oxazin-6-yl)-N-(5-(1-methylpiperidin-4-yl)pyridin-2-yl)pyrimidin-2-amine]
SK-MEL-5; Homo sapiens, SK-MEL-5, read-out: Absolute GI50
  GI50: 1240 nM
SK-MEL-5; inhibition rate
  Max (%): 116.12%
  Min (%): −2.91%
SK-MEL-31; inhibition rate
  Max (%): 125.31%
  Min (%): −0.53%
SK-MEL-31; read-out: Absolute GI50
  GI50: 1230 nM
xMDA-MB-361 breast tumor; Day 0
  Tumor volume (mean ± SEM): 157 ± 11 mm^3
xMDA-MB-361 breast tumor; Day 3
  Tumor volume (mean ± SEM): 202 ± 10 mm^3
xMDA-MB-361 breast tumor; Day 7
  Tumor volume (mean ± SEM): 271 ± 34 mm^3
xMDA-MB-361 breast tumor; Day 10
  Tumor volume (mean ± SEM): 316 ± 43 mm^3
xMDA-MB-361 breast tumor; Day 14
  Tumor volume (mean ± SEM): 342 ± 49 mm^3
xMDA-MB-361 breast tumor; Day 17
  Tumor volume (mean ± SEM): 326 ± 70 mm^3
xMDA-MB-361 breast tumor; Day 21
  Tumor volume (mean ± SEM): 360 ± 84 mm^3
xMDA-MB-361 breast tumor; Day 24
  Tumor volume (mean ± SEM): 429 ± 119 mm^3
xMDA-MB-361 breast tumor; Day 28
  Tumor volume (mean ± SEM): 542 ± 146 mm^3
xMDA-MB-361 breast tumor; Day 31
  Tumor volume (mean ± SEM): 571 ± 150 mm^3
xMDA-MB-361 breast tumor; Day 35
  Tumor volume (mean ± SEM): 587 ± 148 mm^3
xMDA-MB-361 breast tumor; Day 38
  Tumor volume (mean ± SEM): 629 ± 164 mm^3
xMDA-MB-361 breast tumor; Day 42
  Tumor volume (mean ± SEM): 608 ± 145 mm^3
H1975-luc; 144 h, 6 days incubation, read-out: Absolute GI50
  GI50: 226 nM
H1975-luc; [1]
  Max (%): 105.8%
  Min (%): −2.3%
